Assay results as given in PubChem BioAssay (NCI).
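These data come from cells grown in 96-well plates and exposed to compound for 48 hours at five concentrations. TGI denotes the concentration required for complete inhibition of growth.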

Tests used:
Experiment in all cases: NCI-60 cell line screen, 48 h
DMS 273 small cell lung = tested on: DMS 273 small cell lung
IGROV1 ovarian = tested on: IGROV1 ovarian
RPMI-8226 leukemia = tested on: RPMI-8226 leukemia
HCC-2998 colon = tested on: HCC-2998 colon
M19-MEL melanoma = tested on: M19-MEL melanoma
OVCAR-8 ovarian = tested on: OVCAR-8 ovarian
SF-539 CNS = tested on: SF-539 CNS
NCI-H460 lung = tested on: NCI-H460 lung
RXF 393 renal = tested on: RXF 393 renal
HT29 colon = tested on: HT29 colon
HOP-18 NSCLC = tested on: HOP-18 NSCLC
HOP-92 NSCLC = tested on: HOP-92 NSCLC
CCRF-CEM leukemia = tested on: CCRF-CEM leukemia
K-562 leukemia = tested on: K-562 leukemia
U251 CNS = tested on: U251 CNS
SNB-75 CNS = tested on: SNB-75 CNS
UACC-62 melanoma = tested on: UACC-62 melanoma
DMS 114 small cell lung = tested on: DMS 114 small cell lung
SR leukemia = tested on: SR leukemia
SK-MEL-5 melanoma = tested on: SK-MEL-5 melanoma
SN12C renal = tested on: SN12C renal
UO-31 renal = tested on: UO-31 renal
MALME-3M melanoma = tested on: MALME-3M melanoma
OVCAR-4 ovarian = tested on: OVCAR-4 ovarian
NCI-H23 lung = tested on: NCI-H23 lung
SK-OV-3 ovarian = tested on: SK-OV-3 ovarian
KM20L2 colon = tested on: KM20L2 colon
ACHN renal = tested on: ACHN renal
XF 498 CNS = tested on: XF 498 CNS
CAKI-1 renal = tested on: CAKI-1 renal
SF-295 CNS = tested on: SF-295 CNS
OVCAR-5 ovarian = tested on: OVCAR-5 ovarian
LOX IMVI melanoma = tested on: LOX IMVI melanoma
SNB-19 CNS = tested on: SNB-19 CNS
KM12 colon = tested on: KM12 colon
OVCAR-3 ovarian = tested on: OVCAR-3 ovarian
DLD-1 colon = tested on: DLD-1 colon
M14 melanoma = tested on: M14 melanoma
HL-60(TB) leukemia = tested on: HL-60(TB) leukemia
LXFL 529 NSCLC = tested on: LXFL 529 NSCLC
MOLT-4 leukemia = tested on: MOLT-4 leukemia
EKVX NSCLC = tested on: EKVX NSCLC
NCI-H226 lung = tested on: NCI-H226 lung
HCT-15 colon = tested on: HCT-15 colon
A498 renal = tested on: A498 renal
SF-268 CNS = tested on: SF-268 CNS
TK-10 renal = tested on: TK-10 renal
RXF-631 renal = tested on: RXF-631 renal
COLO 205 colon = tested on: COLO 205 colon
A549 NSCLC = tested on: A549 NSCLC
HCT-116 colon = tested on: HCT-116 colon
HOP-62 NSCLC = tested on: HOP-62 NSCLC
SW-620 colon = tested on: SW-620 colon
UACC-257 melanoma = tested on: UACC-257 melanoma
SK-MEL-28 melanoma = tested on: SK-MEL-28 melanoma
786-0 renal = tested on: 786-0 renal
NCI-H522 lung = tested on: NCI-H522 lung
SK-MEL-2 melanoma = tested on: SK-MEL-2 melanoma

## CCCC(=O)c1c(NOC2OCC(OC(C)=O)C(OC(C)=O)C2OC(C)=O)nc(OC)n(C)c1=O (configuration not stated)
DMS 273 small cell lung
  TGI: > 100 µM
IGROV1 ovarian
  TGI: > 100 µM
RPMI-8226 leukemia
  TGI: > 100 µM
HCC-2998 colon
  TGI: > 100 µM
M19-MEL melanoma
  TGI: > 100 µM
OVCAR-8 ovarian
  TGI: > 100 µM
SF-539 CNS
  TGI: > 100 µM
NCI-H460 lung
  TGI: > 100 µM
RXF 393 renal
  TGI: > 100 µM
HT29 colon
  TGI: > 100 µM
HOP-18 NSCLC
  TGI: > 100 µM
HOP-92 NSCLC
  TGI: > 100 µM
CCRF-CEM leukemia
  TGI: 19.1 µM
K-562 leukemia
  TGI: 36 µM
U251 CNS
  TGI: > 100 µM
SNB-75 CNS
  TGI: > 100 µM
UACC-62 melanoma
  TGI: > 100 µM
DMS 114 small cell lung
  TGI: > 100 µM
SR leukemia
  TGI: > 100 µM
SK-MEL-5 melanoma
  TGI: > 100 µM
SN12C renal
  TGI: > 100 µM
UO-31 renal
  TGI: > 100 µM
MALME-3M melanoma
  TGI: > 100 µM
OVCAR-4 ovarian
  TGI: > 100 µM
NCI-H23 lung
  TGI: > 100 µM
SK-OV-3 ovarian
  TGI: > 100 µM
KM20L2 colon
  TGI: > 100 µM
ACHN renal
  TGI: > 100 µM
XF 498 CNS
  TGI: > 100 µM
CAKI-1 renal
  TGI: > 100 µM
SF-295 CNS
  TGI: > 100 µM
OVCAR-5 ovarian
  TGI: > 100 µM
LOX IMVI melanoma
  TGI: > 100 µM
SNB-19 CNS
  TGI: > 100 µM
KM12 colon
  TGI: > 100 µM
OVCAR-3 ovarian
  TGI: > 100 µM
DLD-1 colon
  TGI: > 100 µM
M14 melanoma
  TGI: > 100 µM
HL-60(TB) leukemia
  TGI: 3.09 µM
LXFL 529 NSCLC
  TGI: > 100 µM
MOLT-4 leukemia
  TGI: > 100 µM
EKVX NSCLC
  TGI: > 100 µM
NCI-H226 lung
  TGI: > 100 µM
HCT-15 colon
  TGI: > 100 µM
A498 renal
  TGI: > 100 µM
SF-268 CNS
  TGI: > 100 µM
TK-10 renal
  TGI: > 100 µM
RXF-631 renal
  TGI: > 100 µM
COLO 205 colon
  TGI: > 100 µM
A549 NSCLC
  TGI: > 100 µM
HCT-116 colon
  TGI: > 100 µM
HOP-62 NSCLC
  TGI: > 100 µM
SW-620 colon
  TGI: > 100 µM
UACC-257 melanoma
  TGI: > 100 µM
SK-MEL-28 melanoma
  TGI: > 100 µM
786-0 renal
  TGI: > 100 µM

## Cc1nc2sccn2c1C(=O)N/N=C1\SCC(=O)N1C
DMS 273 small cell lung
  TGI: > 100 µM
IGROV1 ovarian
  TGI: > 100 µM
RPMI-8226 leukemia
  TGI: > 100 µM
HCC-2998 colon
  TGI: > 100 µM
M19-MEL melanoma
  TGI: > 100 µM
OVCAR-8 ovarian
  TGI: > 100 µM
SF-539 CNS
  TGI: > 100 µM
NCI-H460 lung
  TGI: > 100 µM
RXF 393 renal
  TGI: > 100 µM
HT29 colon
  TGI: > 100 µM
HOP-18 NSCLC
  TGI: > 100 µM
HOP-92 NSCLC
  TGI: > 100 µM
CCRF-CEM leukemia
  TGI: > 100 µM
K-562 leukemia
  TGI: > 100 µM
U251 CNS
  TGI: > 100 µM
UACC-62 melanoma
  TGI: > 100 µM
DMS 114 small cell lung
  TGI: > 100 µM
SR leukemia
  TGI: > 100 µM
SK-MEL-5 melanoma
  TGI: > 100 µM
SN12C renal
  TGI: > 100 µM
MALME-3M melanoma
  TGI: > 100 µM
NCI-H23 lung
  TGI: > 100 µM
SK-OV-3 ovarian
  TGI: > 100 µM
KM20L2 colon
  TGI: > 100 µM
NCI-H522 lung
  TGI: > 100 µM
ACHN renal
  TGI: > 100 µM
XF 498 CNS
  TGI: > 100 µM
CAKI-1 renal
  TGI: > 100 µM
SF-295 CNS
  TGI: > 100 µM
OVCAR-5 ovarian
  TGI: > 100 µM
LOX IMVI melanoma
  TGI: > 100 µM
SNB-19 CNS
  TGI: > 100 µM
KM12 colon
  TGI: > 100 µM
OVCAR-3 ovarian
  TGI: > 100 µM
DLD-1 colon
  TGI: > 100 µM
HL-60(TB) leukemia
  TGI: > 100 µM
LXFL 529 NSCLC
  TGI: > 100 µM
MOLT-4 leukemia
  TGI: > 100 µM
EKVX NSCLC
  TGI: > 100 µM
NCI-H226 lung
  TGI: > 100 µM
HCT-15 colon
  TGI: > 100 µM
SF-268 CNS
  TGI: > 100 µM
TK-10 renal
  TGI: > 100 µM
RXF-631 renal
  TGI: > 100 µM
SK-MEL-2 melanoma
  TGI: > 100 µM
COLO 205 colon
  TGI: > 100 µM
A549 NSCLC
  TGI: > 100 µM
HCT-116 colon
  TGI: > 100 µM
HOP-62 NSCLC
  TGI: > 100 µM
SW-620 colon
  TGI: > 100 µM
UACC-257 melanoma
  TGI: > 100 µM
SK-MEL-28 melanoma
  TGI: > 100 µM
786-0 renal
  TGI: > 100 µM

## CN1c2ccccc2NC(CC(=O)O)C2CC=CN21 (configuration not stated)
DMS 273 small cell lung
  TGI: > 100 µM
IGROV1 ovarian
  TGI: > 100 µM
RPMI-8226 leukemia
  TGI: > 100 µM
M19-MEL melanoma
  TGI: > 100 µM
OVCAR-8 ovarian
  TGI: > 100 µM
SF-539 CNS
  TGI: > 100 µM
NCI-H460 lung
  TGI: > 100 µM
RXF 393 renal
  TGI: > 100 µM
HT29 colon
  TGI: > 100 µM
HOP-18 NSCLC
  TGI: > 100 µM
HOP-92 NSCLC
  TGI: > 100 µM
CCRF-CEM leukemia
  TGI: > 100 µM
K-562 leukemia
  TGI: > 100 µM
U251 CNS
  TGI: > 100 µM
SNB-75 CNS
  TGI: > 100 µM
UACC-62 melanoma
  TGI: > 100 µM
DMS 114 small cell lung
  TGI: > 100 µM
SK-MEL-5 melanoma
  TGI: > 100 µM
SN12C renal
  TGI: > 100 µM
UO-31 renal
  TGI: > 100 µM
MALME-3M melanoma
  TGI: > 100 µM
OVCAR-4 ovarian
  TGI: > 100 µM
NCI-H23 lung
  TGI: > 100 µM
SK-OV-3 ovarian
  TGI: > 100 µM
KM20L2 colon
  TGI: > 100 µM
NCI-H522 lung
  TGI: > 100 µM
ACHN renal
  TGI: > 100 µM
XF 498 CNS
  TGI: > 100 µM
CAKI-1 renal
  TGI: > 100 µM
SF-295 CNS
  TGI: > 100 µM
OVCAR-5 ovarian
  TGI: > 100 µM
LOX IMVI melanoma
  TGI: > 100 µM
SNB-19 CNS
  TGI: > 100 µM
KM12 colon
  TGI: > 100 µM
OVCAR-3 ovarian
  TGI: > 100 µM
M14 melanoma
  TGI: > 100 µM
HL-60(TB) leukemia
  TGI: > 100 µM
LXFL 529 NSCLC
  TGI: > 100 µM
MOLT-4 leukemia
  TGI: > 100 µM
EKVX NSCLC
  TGI: > 100 µM
HCT-15 colon
  TGI: > 100 µM
A498 renal
  TGI: > 100 µM
SF-268 CNS
  TGI: > 100 µM
TK-10 renal
  TGI: > 100 µM
RXF-631 renal
  TGI: > 100 µM
SK-MEL-2 melanoma
  TGI: > 100 µM
COLO 205 colon
  TGI: > 100 µM
A549 NSCLC
  TGI: > 100 µM
HOP-62 NSCLC
  TGI: > 100 µM
SW-620 colon
  TGI: > 100 µM
UACC-257 melanoma
  TGI: > 100 µM
SK-MEL-28 melanoma
  TGI: > 100 µM
786-0 renal
  TGI: > 100 µM
